Experimental data from patent publication US9750689B2, “Transdermal silicone gel (silogel) compositions and methods of preparation” (Humco Holding Group, Inc., priority 2013, dated 2017).
Read-outs that look alike come from different tables or passages of the source.

Experiment: Percutaneous absorption testing (percent of applied dose that penetrated past the stratum corneum)
Text: See Jorge, L., et al., Journal of Pain Research, Topical Preparations for Pain Relief—Efficacy and Patient Adherence, Vol. 4, No. 11-24, 2011.

[1] = 2 Hours, eight drugs dissolved together in Salt-Stable LS Advanced
[2] = 4 Hours, eight drugs dissolved together in Salt-Stable LS Advanced
[3] = 8 Hours, eight drugs dissolved together in Salt-Stable LS Advanced
[4] = 12 Hours, eight drugs dissolved together in Salt-Stable LS Advanced
[5] = 24 Hours, eight drugs dissolved together in Salt-Stable LS Advanced
[6] = 32 Hours, eight drugs dissolved together in Salt-Stable LS Advanced
[7] = 48 Hours, eight drugs dissolved together in Salt-Stable LS Advanced

Row | Compound | Percutaneous Absorption Testing, 2 Hours (2 h) [%] | Percutaneous Absorption Testing, 4 Hours (4 h) [%] | Percutaneous Absorption Testing, 8 Hours (8 h) [%] | Percutaneous Absorption Testing, 12 Hours (12 h) [%] | Percutaneous Absorption Testing, 24 Hours (24 h) [%] | Percutaneous Absorption Testing, 32 Hours (32 h) [%] | Percutaneous Absorption Testing, 48 Hours (48 h) [%] | also measured
1 | NCC(CC(=O)O)c1ccc(Cl)cc1 (stereo not shown) [Baclofen] | 0 | 1 | 2 | 3 | 4 | 5 | 6 | 
2 | CCCCN1CCCCC1C(=O)Nc1c(C)cccc1C (stereo not shown) [Bupivacaine] | 0 | 1 | 1 | 2 | 3 | 4 | 4 | 
3 | CN(C)CCC=C1c2ccccc2C=Cc2ccccc21 [Cyclobenzaprine] | 0 | 2 | 3 | 5 | 7 | 8 | 10 | 
4 | O=C(O)Cc1ccccc1Nc1c(Cl)cccc1Cl [Diclofenac] | 0 | 1 | 4 | 4 | 7 | 10 | 10 | 
5 | NCC1(CC(=O)O)CCCCC1 [Gabapentin] |  |  |  |  |  |  |  | Percutaneous Absorption Testing, 2 Hours [1]: 0%; Percutaneous Absorption Testing, 4 Hours [2]: 0%; Percutaneous Absorption Testing, 8 Hours [3]: 1%; Percutaneous Absorption Testing, 12 Hours [4]: 2%; Percutaneous Absorption Testing, 24 Hours [5]: 2%; Percutaneous Absorption Testing, 32 Hours [6]: 3%; Percutaneous Absorption Testing, 48 Hours [7]: 3%
6 | CC(C)Cc1ccc(C(C)C(=O)O)cc1 (stereo not shown) [Ibuprofen] |  |  |  |  |  |  |  | Percutaneous Absorption Testing, 2 Hours: 5%; Percutaneous Absorption Testing, 4 Hours: 8%; Percutaneous Absorption Testing, 12 Hours: 20%; Percutaneous Absorption Testing, 24 Hours: 30%; Percutaneous Absorption Testing, 32 Hours: 39%; Percutaneous Absorption Testing, 48 Hours: 39%
7 | CNC1(c2ccccc2Cl)CCCCC1=O (stereo not shown) [Ketamine] |  |  |  |  |  |  |  | Percutaneous Absorption Testing, 2 Hours [1]: 4%; Percutaneous Absorption Testing, 4 Hours [2]: 7%; Percutaneous Absorption Testing, 8 Hours [3]: 20%; Percutaneous Absorption Testing, 12 Hours [4]: 25%; Percutaneous Absorption Testing, 24 Hours [5]: 38%; Percutaneous Absorption Testing, 32 Hours [6]: 51%; Percutaneous Absorption Testing, 48 Hours [7]: 51%
8 | CC(=O)CCCCn1c(=O)c2c(ncn2C)n(C)c1=O [Pentoxifylline] | 3 | 7 | 26 | 34 | 53 | 71 | 71 | 
